Patent publication US20240344241A1, “PROTEINACEOUS MOLECULES AND USES THEREFOR” (THE UNIVERSITY OF QUEENSLAND, priority 2021, published 2024)
Bridge positions count the residues as written; N and C are the ends. Peptide text beside a SMILES is read from it.

Key:
Human β-FXIIa [1] = biological target: T1, Human β-FXIIa (Homo sapiens, UniProt P00748); assay: FXIIa competitive inhibition assay, fluorescent substrate Boc-QGR-MCA; format: biochemical
T1 construct: Human β-FXIIa was obtained from Molecular Innovations, together with human FXa, human FXIa, human α-thrombin, and human plasma kallikrein; purchased Molecular Innovations; host or cells: purified from human plasma
T1 sequence (P00748 373-615 limits assumed, other chains not shown): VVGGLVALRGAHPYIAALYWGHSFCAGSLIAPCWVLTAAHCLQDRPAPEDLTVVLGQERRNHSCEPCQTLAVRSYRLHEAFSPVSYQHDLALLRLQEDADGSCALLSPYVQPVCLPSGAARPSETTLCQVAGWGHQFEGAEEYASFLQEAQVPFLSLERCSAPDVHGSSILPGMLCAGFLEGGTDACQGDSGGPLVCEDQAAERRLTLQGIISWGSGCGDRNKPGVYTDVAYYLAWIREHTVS
Description: Cyclic [I7F]MCoFx1 (also referred to as cyclic MCoFx6) was synthesized using solid phase peptide synthesis ([[…]] [SEQ ID NO: 97]). For this inhibitor, Tyr33 was mutated back to serine as per the original mRNA display screen (FIG. 1). Cyclic MCoFx6 was screened using a competitive inhibition assay, with the substrate being changed from a colorimetric substrate (Ac-QRFR-pNA in the data of Tables 7 and 10) to a fluorescent substrate (Boc-QGR-MCA) to allow the assay to be run with a lower concentration of enzyme. The assay was performed as described for Examples 2 and 3, except that the FXIIa concentration was 0.5 nM and the substrate concentration was 50 μM (KM=187 μM).
The new variants were screened using competitive inhibition assays, with the substrate being changed from a colorimetric substrate (Ac-QRFR-pNA in the data of Tables 7 and 10) to a fluorescent substrate (Boc-QGR-MCA) to allow the assay to be run with a lower concentration of enzyme. Assays were performed as described for Examples 2 and 3, except that the FXIIa concentration was 0.5 nM and the substrate concentration was 50 μM (KM=187 μM). […] The effect of amino acid substitutions within loop 2 (Arg12, Arg13), loop 5 (Ala25, Arg27) or loop 6 (Asp34) on the activity of cyclic MCoFx7 against FXIIa was determined (refer to Table 14). […] Additionally, mutating Arg to Glu (reversing the side chain charge) only led to two-fold weaker activity. The adjacent residue Arg13 could also be mutated to Lys with no change in activity. Within loop 5, mutating Ala25 to Lys produced a slight gain in activity, whereas the Ala to Pro mutation led to a slight decrease in activity. Both mutations at Arg27 led to losses in activity in the order of two-fold (His) or 3.2-fold (Gly).
(§1) The activity of acyclic and cyclic MCoFx1-5 and analogues thereof was assessed in competitive inhibition assays, as previously described in Swedberg et al. (2016) J Med Chem, 59: 7287-7292. Human β-FXIIa was obtained from Molecular Innovations, together with human FXa, human FXIa, human α-thrombin, and human plasma kallikrein. Human cationic trypsin and human plasmin were obtained from Sigma-Aldrich, and recombinant human matriptase was sourced from R&D Systems. Recombinant human urokinase (uPA) and recombinant human tissue plasminogen activator (tPA) were expressed in Expi293 cells, as previously described in Li et al. (2019) Chembiochem, 20: 46-50. FXIIa inhibition assays were performed in clear, low-binding 96-well plates using 250 μL (final volume) of assay buffer (0.1 M Tris-HCl pH 8.0, 0.1 M NaCl, 10 mM CaCl2 and 0.005% Triton X-100). Inhibitors were serially diluted and incubated with 10 nM FXIIa at room temperature to reach equilibrium. After adding 100 μM Ac-QRFR-pNA substrate (KM=162 μM), enzymatic activity was measured by monitoring release of the pNA moiety using a TECAN infinite M1000 Pro plate reader (A=405 nm, reading interval, 10 s; assay time course, 7 min). Assays were conducted in three times in duplicate. Substrate kinetic constants (Michaelis-Menten) and inhibition constants (Morrison K) were determined by non-linear regression using Prism 7 (GraphPad). Selectivity assays with off-target proteases were performed in a similar way, except that different concentrations of enzyme and substrate were used, as indicated in Table 16. For assays using a fluorescent substrate (peptide-4-methylcoumaryl-7-amide, MCA), black low-binding 96-well plates were used and activity was measured using a TECAN infinite M1000 pro plate reader (λex 360 nm, λem 460 nm, reading interval, 30 s; assay time course, 5-30 min).

bovine trypsin = biological target: T2, bovine trypsin (Bos taurus, UniProt P00760); assay: Surface plasmon resonance binding to trypsin; details: for affinity for trypsin (in words): SPR
T2 sequence (P00760 24-246): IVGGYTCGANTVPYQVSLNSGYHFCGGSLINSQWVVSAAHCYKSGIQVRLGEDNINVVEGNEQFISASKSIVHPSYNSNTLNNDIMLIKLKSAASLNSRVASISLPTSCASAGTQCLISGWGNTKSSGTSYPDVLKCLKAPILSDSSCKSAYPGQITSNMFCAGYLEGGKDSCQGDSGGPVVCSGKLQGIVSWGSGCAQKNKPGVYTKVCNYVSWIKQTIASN

Human β-FXIIa [2] = biological target: T1, Human β-FXIIa; assay: FXIIa competitive inhibition assay, colorimetric substrate Ac-QRFR-pNA; format: biochemical
Method: as §1

SMILES | Ki (Human β-FXIIa [1]) [nM] | affinity for trypsin (in words) (bovine trypsin) | other results
CC[C@H](C)[C@@H]1NC(=O)CNC(=O)CNC(=O)[C@H](CC(=O)O)NC(=O)[C@H](CO)NC(=O)CNC(=O)[C@H](CO)NC(=O)CNC(=O)[C@@H]2CSSC[C@@H]3NC(=O)[C@H](CC(=O)O)NC(=O)[C@H](CO)NC(=O)[C@H](CC(=O)O)NC(=O)[C@H](CCCNC(=N)N)NC(=O)[C@H](CCCNC(=N)N)NC(=O)[C@@H]4CSSC[C@H](NC(=O)[C@H]([C@@H](C)CC)NC(=O)[C@H](CSSC[C@H](NC1=O)C(=O)N1CCC[C@H]1C(=O)N[C@@H](CCCNC(=N)N)C(=O)N[C@@H]([C@@H](C)CC)C(=O)NCC(=O)N[C@@H](CCCNC(=N)N)C(=O)N[C@@H](CC(C)C)C(=O)N4)NC(=O)[C@H](C)NC(=O)CNC(=O)[C@@H]1CCCN1C3=O)C(=O)N[C@@H](CCCNC(=N)N)C(=O)N[C@@H](CCCCN)C(=O)N[C@@H]([C@@H](C)O)C(=O)N[C@@H](CCCNC(=N)N)C(=O)N[C@@H](Cc1ccccc1)C(=O)N2 [Cyclic [A25K]MCoFx7] (cyclo(ACICRKTRFCGSGSDGGICPRIGRLCRRDSDCPG); disulfide 2-19, 4-26, 10-32) | 0.046 ± 0.005 | – | –
CC[C@H](C)[C@@H]1NC(=O)CNC(=O)CNC(=O)[C@@H]2CCCN2C(=O)[C@H](CO)NC(=O)CNC(=O)[C@H](CO)NC(=O)CNC(=O)[C@@H]2CSSC[C@@H]3NC(=O)[C@H](CC(=O)O)NC(=O)[C@H](CO)NC(=O)[C@H](CC(=O)O)NC(=O)[C@H](CCCNC(=N)N)NC(=O)[C@H](CCCNC(=N)N)NC(=O)[C@@H]4CSSC[C@H](NC(=O)[C@H]([C@@H](C)CC)NC(=O)[C@H](CSSC[C@H](NC1=O)C(=O)N1CCC[C@H]1C(=O)N[C@@H](CCCNC(=N)N)C(=O)N[C@@H]([C@@H](C)CC)C(=O)NCC(=O)N[C@@H](CCCNC(=N)N)C(=O)N[C@@H](CC(C)C)C(=O)N4)NC(=O)[C@H](C)NC(=O)CNC(=O)[C@@H]1CCCN1C3=O)C(=O)N[C@@H](CCCNC(=N)N)C(=O)N[C@@H](C)C(=O)N[C@@H]([C@@H](C)O)C(=O)N[C@@H](CCCNC(=N)N)C(=O)N[C@@H](Cc1ccccc1)C(=O)N2 [Cyclic [D34P]MCoFx7] (cyclo(ACICRATRFCGSGSPGGICPRIGRLCRRDSDCPG); disulfide 2-19, 4-26, 10-32) | 0.091 | – | –
CC[C@H](C)[C@@H]1NC(=O)CNC(=O)CNC(=O)[C@H](CC(=O)O)NC(=O)[C@H](CO)NC(=O)CNC(=O)[C@H](CO)NC(=O)CNC(=O)[C@@H]2CSSC[C@@H]3NC(=O)[C@H](CC(=O)O)NC(=O)[C@H](CO)NC(=O)[C@H](CC(=O)O)NC(=O)[C@H](CCCNC(=N)N)NC(=O)[C@H](CCC(=O)O)NC(=O)[C@@H]4CSSC[C@H](NC(=O)[C@H]([C@@H](C)CC)NC(=O)[C@H](CSSC[C@H](NC1=O)C(=O)N1CCC[C@H]1C(=O)N[C@@H](CCCNC(=N)N)C(=O)N[C@@H]([C@@H](C)CC)C(=O)NCC(=O)N[C@@H](CCCNC(=N)N)C(=O)N[C@@H](CC(C)C)C(=O)N4)NC(=O)[C@H](C)NC(=O)CNC(=O)[C@@H]1CCCN1C3=O)C(=O)N[C@@H](CCCNC(=N)N)C(=O)N[C@@H](C)C(=O)N[C@@H]([C@@H](C)O)C(=O)N[C@@H](CCCNC(=N)N)C(=O)N[C@@H](Cc1ccccc1)C(=O)N2 [Cyclic [R12E]MCoFx7] (cyclo(ACICRATRFCGSGSDGGICPRIGRLCERDSDCPG); disulfide 2-19, 4-26, 10-32) | 0.13 ± 0.007 | – | –
CC[C@H](C)[C@@H]1NC(=O)[C@@H]2CSSC[C@H](NC(=O)[C@H](CCCNC(=N)N)NC(=O)CNC(=O)CNC(=O)[C@@H](N)CC(=O)O)C(=O)N[C@@H](CS)C(=O)NCC(=O)NCC(=O)N[C@@H](Cc3ccc(O)cc3)C(=O)N[C@@H](CC(C)C)C(=O)N[C@@H](C(C)C)C(=O)N[C@H]3CSSC[C@H](NC1=O)C(=O)N[C@@H](C(C)C)C(=O)N[C@@H](Cc1ccccc1)C(=O)N[C@@H](CCCCN)C(=O)N[C@@H](CCCCN)C(=O)N[C@@H](Cc1c[nH]cn1)C(=O)N[C@H](C(=O)NCC(=O)N[C@@H](CO)C(=O)NCC(=O)N[C@@H](CO)C(=O)O)CSSC[C@H](NC(=O)[C@H](CC(=O)O)NC(=O)[C@H](CO)NC(=O)[C@H](CC(=O)O)NC(=O)[C@H](CCCNC(=N)N)NC(=O)[C@H](CCCNC(=N)N)NC3=O)C(=O)N1CCC[C@H]1C(=O)NCC(=O)N[C@@H](C)C(=O)N2 [MCoFx5 acyclic] (H-DGGRCCGGYLVCRRDSDCPGACICVFKKHCGSGS-OH; disulfide 5-22, 12-24, 18-30) | – | Neither aMCoFx5 nor cMCoFx5 showed detectable affinity for trypsin | KD (nM) Trypsin Acyclic (bovine trypsin; Table 8, acyclic form): No binding
CC[C@H](C)[C@@H]1NC(=O)[C@@H]2CSSC[C@@H]3NC(=O)[C@H](CCCNC(=N)N)NC(=O)CNC(=O)CNC(=O)[C@H](CC(=O)O)NC(=O)[C@H](CO)NC(=O)CNC(=O)[C@H](CO)NC(=O)CNC(=O)[C@@H]4CSSC[C@H](NC(=O)[C@H](CC(=O)O)NC(=O)[C@H](CO)NC(=O)[C@H](CC(=O)O)NC(=O)[C@H](CCCNC(=N)N)NC(=O)[C@H](CCCNC(=N)N)NC(=O)[C@H](CSSC[C@H](NC1=O)C(=O)N[C@@H](C(C)C)C(=O)N[C@@H](Cc1ccccc1)C(=O)N[C@@H](CCCCN)C(=O)N[C@@H](CCCCN)C(=O)N[C@@H](Cc1c[nH]cn1)C(=O)N4)NC(=O)[C@H](C(C)C)NC(=O)[C@H](CC(C)C)NC(=O)[C@H](Cc1ccc(O)cc1)NC(=O)CNC(=O)CNC(=O)[C@H](CS)NC3=O)C(=O)N1CCC[C@H]1C(=O)NCC(=O)N[C@@H](C)C(=O)N2 [MCoFx5 cyclic] (cyclo(DGGRCCGGYLVCRRDSDCPGACICVFKKHCGSGS); disulfide 5-22, 12-24, 18-30) | – | Neither aMCoFx5 nor cMCoFx5 showed detectable affinity for trypsin | KD (nM) Trypsin Cyclic (bovine trypsin; Table 8, cyclic form): No binding
CC[C@H](C)[C@@H]1NC(=O)[C@H](CCCNC(=N)N)NC(=O)[C@@H]2CCCN2C(=O)[C@@H](NC(=O)[C@@H](NC(=O)[C@@H](N)CCCNC(=N)N)[C@@H](C)CC)CSSC[C@@H]2NC(=O)[C@H](C)NC(=O)CNC(=O)[C@@H]3CCCN3C(=O)[C@@H]3CSSC[C@@H](C(=O)NCC(=O)O)NC(=O)[C@H](Cc4ccccc4)NC(=O)[C@H](CCCNC(=N)N)NC(=O)[C@H]([C@@H](C)O)NC(=O)[C@H](C)NC(=O)[C@H](CCCNC(=N)N)NC(=O)[C@H](CSSC[C@H](NC(=O)[C@H](CC(C)C)NC(=O)[C@H](CCCNC(=N)N)NC(=O)CNC1=O)C(=O)N[C@@H](CCCNC(=N)N)C(=O)N[C@@H](CCCNC(=N)N)C(=O)N[C@@H](CC(=O)O)C(=O)N[C@@H](CO)C(=O)N[C@@H](CC(=O)O)C(=O)N3)NC(=O)[C@H]([C@@H](C)CC)NC2=O [SEQ ID NO: 84] (H-RICPRIGRLCRRDSDCPGACICRATRFCG-OH; disulfide 3-20, 10-22, 16-28) | – | – | Ki (Human β-FXIIa [2]): 1.4 nM
